The values below come from US20090074757A1, “Antitumor Combination Comprising Substituted Acryloyl Distamycin Derivatives and Antibodies Inhibiting Growth Factors or Their Receptors” (priority 2005, published 2009).

This data set has as its system DU145 human prostate carcinoma cells. The data set is described as follows: In vivo antitumor efficacy, DU145 human prostate carcinoma xenograft in athymic mice. Further details: species or system Balb Nu/Nu athymic mice. The following applies: for Toxicity: evaluated on the basis of body weight reduction, animals per group of 8, bevacizumab 20 mg/kg i.p., brostallicin 0.2 mg/kg i.v.; for Time to reach 1 g / T-C (days), delay for treated vs control tumors to reach 1 g: s.c. DU145 tumors in athymic mice, bevacizumab 20 mg/kg i.p. days 6,10,13,17,20,24; for Time to reach 1 g: treatment from day 6, brostallicin 0.2 mg/kg i.v. days 6,13,20 (q7d x 3); for T-C (days), delay for treated vs control tumors to reach 1 g: brostallicin 0.2 mg/kg i.v. days 6,13,20. As for the experimental part: Balb Nu/Nu, male mice, (athymic mice) from Harlan, Italy, were maintained in cages with paper filter covers, food and bedding sterilized and water acidified. 2.5×10^6 DU145 human prostate carcinoma cells (from American Type Culture Collection) were injected subcutaneously in athymic mice. […] The treatments started 6 days later when the tumors were palpable. All drugs were prepared immediately before use. Brostallicin treatments were administered intravenously in a volume of 10 ml/kg at a dose of 0.2 mg/kg and treatments were repeated weekly for 3 weeks. Bevacizumab was administered intraperitoneally in a volume of 10 ml/kg at a dose of 20 mg/kg on the days 6, 10, 13, 17, 20 and 24 from the day of cell injection. When both compounds were administered on the same day, bevacizumab was administered intraperitoneally immediately before brostallicin intravenous injection. Every 3 days the tumor growth and the net body weight were evaluated. Tumor growth was assessed by caliper. The two diameters were recorded, and the tumor weight was calculated according to the following formula: length (mm)×width^2 (mm)/2. The effect of the antitumor treatment was determined as the delay in the onset of an exponential growth of tumors [see for reference, Anti Cancer Drugs 7: 437-60, 1996]. This delay (T-C value) was defined as the difference of the time (in days) required for the treatment group (T) and the control group (C) tumors to reach a predetermined size (e.g. 1 g). Toxicity was evaluated on the basis of the body weight reduction.

For the compound `C=C(Br)C(=O)Nc1cc(C(=O)Nc2cc(C(=O)Nc3cc(C(=O)Nc4cc(C(=O)NCCNC(=N)N)n(C)c4)n(C)c3)n(C)c2)n(C)c1.Cl` [Brostallicin, N-(5-{[(5-{[(5-{[(2-{[amino(imino)methyl]amino}ethyl)amino]carbonyl}-1-methyl-1H-pyrrol-3-yl)amino]carbonyl}-1-methyl-1H-pyrrol-3-yl)amino]carbonyl}-1-methyl-1H-pyrrol-3-yl)-4-[(2-bromoacryloyl)amino]-1-methyl-1H-pyrrole-2-carboxamide hydrochloride], the Toxicity is 0/8; the “Time to reach 1 g” value is given as 18.4 ± 5.6 days; the “T-C (days), delay for treated vs control tumors to reach 1 g” value was 4.6 days.
The matching figures for “Bevacizumab: monoclonal antibody directed against the vascular endothelial growth factor (VEGF), a potent neo-vascularisation inhibitor”: 0/8, 23.4 ± 4.6 days and 9.6 days.
